Test results taken from patent US12527801B2, “Cell activator of animal cell” (Vitamin C60 BioResearch Corporation, priority 2019, dated 2026).

What was measured:
[1] = Test of long-term continuous use (double blind, half face): water content of keratin and TEWL; assay type: in vivo, human; conditions: conclusion from 8-week use of toner with 0.1% by weight AOH
Method: A test of long-term continuous use (double blind test) was performed using a toner (toner B) comprising 0.1% by weight of AOH of Example 4 and a placebo toner (toner A) having the same composition as that of the toner of Example 4 except that AOH was not comprised to perform evaluation of the water content of keratin and the transepidermal water loss (TEWL). 22 test subjects (females, average age 48.4±4.68 years old) were asked to apply the toner A on the half face and the toner B on the other half face after washing their faces twice in the morning and evening, and this was continued for 8 weeks. The water content of keratin and the TEWL were measured at the start of the test, after 4 weeks, and after 8 weeks. The water content of stratum corneum and the TEWL on the left and right cheek portions of the test subjects were measured using each of SKICON-200EX (Yayoi Co., Ltd.) and Cyclone Moisture Evaporator AS-CT1 (ASCH Japan Co., Ltd.). Analysis of test results was performed on 20 subjects as effective test subjects excluding 2 test subjects whose left-right difference in the water content of keratin at the start of the test was 150 μS or more.

[2] = Mutagenicity test (Ames test) (OECD TG471); assay type: cell-based
[3] = test system: Normal human epidermal keratinocytes; test: Action of activating epidermal cells (MTT reduction); assay type: cell-based; conditions: for Index (%) Mean ± S.D.: 48 h, untreated cells = 100
Method: Normal human epidermal keratinocytes were seeded on 96-well plates at the density of 5.0×10^3 cells/well using a HuMedia KG2 medium (KG2). 24 hours after seeding, the above-mentioned medium was replaced with a HuMedia KB2 medium (KB2) comprising the test sample. AOH and AHX (2-azahypoxanthine) were used as test samples, KG2 as a positive control (P. C.) for the cell activating action was treated instead of the test sample, and cells which were not treated with the samples were used as a negative control. After culturing for 48 hours, the above-mentioned medium was replaced with KB2 comprising 0.2 mg/mL of MTT to perform culturing for 1 hour. After removing the medium, the absorbance at 550 nm and 650 nm of the cell lysate in which 2-propanol was added to lyse the cells was measured. The amount of MTT reduced to blue formazan was obtained by subtracting the absorbance at 650 nm, which was derived from the cell turbidity, from the absorbance at 550 nm. The action of activating epidermal keratinocytes was shown as Index (%), which is a percentage of the absorbance of the cells, which was treated with the test samples, to the absorbance of the cells, which was not treated with the samples (negative control), with the amount of MTT reduced as an index.

For `O=c1[nH]c2nn[nH]c(=O)c2[nH]1` [AOH, 3H-imidazo[4,5-d][1,2,3]triazine-4,6(5H,7H)-dione], the “moisturizing effect on the skin” value [1] was “has the moisturizing effect on the skin”, the “toxicity in mutagenicity test (Ames test)” value [2] was “toxicity was not recognized” and the “Index (%) Mean ± S.D.” value ([3]; 3.9 μg/mL) was 105.7 ± 4.5%. The “Index (%) Mean ± S.D.” value ([3]; 7.8 μg/mL) was 108.4 ± 4%, the “Index (%) Mean ± S.D.” value ([3]; 15.6 μg/mL) was 108.7 ± 5.6% and the “Index (%) Mean ± S.D.” value ([3]; 31.3 μg/mL) was 109.7 ± 5.2%. The “Index (%) Mean ± S.D.” value ([3]; 62.5 μg/mL) was 102.3 ± 2.8%, the “Index (%) Mean ± S.D.” value ([3]; 125 μg/mL) was 98.6 ± 0.7% and the “Index (%) Mean ± S.D.” value ([3]; 250 μg/mL) was 94.2 ± 1.7%. For the same compound, the “Index (%) Mean ± S.D.” value ([3]; 500 μg/mL) was 91.9 ± 0.9%, the cytotoxicity compared ([3]; AOH versus AHX) was “lower cytotoxicity than AHX” and the “change in Index” value ([3]; concentrations of 7.8 to 31.3 μg/mL) was “significant increase in Index”. For the same compound, the “proliferative effect / cell activating action” value ([3]; epidermal keratinocytes) was “has the cell activating action”.
